Experimental data from US20100298141A1, “SUBSTITUTED PYRIDINE N-OXIDE HERBICIDES” (E. I. DU PONT DE NEMOURS AND COMPANY, priority 2007, published 2010).

Tests used:
[1] = tested on: barnyardgrass; experiment: Test B flooded paddy test; format: in vivo, Echinochloa crus-galli; settings: Flood, 250 g ai/ha, 13 to 15 days; scale 0 to 100, 0 no effect, 100 complete control
Excerpt: (§1) At time of treatment, test pots were flooded to 3 cm above the soil surface, treated by application of test compounds directly to the paddy water, and then maintained at that water depth for the duration of the test. Treated plants and controls were maintained in a greenhouse for 13 to 15 days, after which time all species were compared to controls and visually evaluated. […] A dash (-) response means no test result.

[2] = tested on: duck salad; experiment: Test B flooded paddy test; format: in vivo, Heteranthera limosa; settings: Flood, 250 g ai/ha, 13 to 15 days; scale 0 to 100, 0 no effect, 100 complete control
Excerpt: as §1

[3] = tested on: umbrella sedge; experiment: Test B flooded paddy test; format: in vivo, Cyperus difformis; settings: Flood, 250 g ai/ha, 13 to 15 days; scale 0 to 100, 0 no effect, 100 complete control
Excerpt: as §1

[4] = tested on: downy bromegrass; experiment: Test D preemergence test; format: in vivo, Bromus tectorum; settings: scale 0 to 100
Method in brief: (§2)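 Seeds planted and treated preemergence with test chemicals formulated in a non-phytotoxic solvent mixture containing surfactant. A dash means no test result.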

[5] = tested on: field violet; experiment: Test D preemergence test; format: in vivo, Viola arvensis; settings: scale 0 to 100
Method in brief: as §2

[6] = tested on: green foxtail; experiment: Test D preemergence test; format: in vivo, Setaria viridis; settings: scale 0 to 100
Method in brief: as §2

[7] = tested on: Italian ryegrass; experiment: Test D preemergence test; format: in vivo, Lolium multiflorum; settings: scale 0 to 100
Method in brief: as §2

[8] = tested on: spring wheat; experiment: Test D preemergence test; format: in vivo, Triticum aestivum; settings: scale 0 to 100
Method in brief: as §2

[9] = tested on: winter wheat; experiment: Test D preemergence test; format: in vivo, Triticum aestivum; settings: scale 0 to 100
Method in brief: as §2

[10] = tested on: wild oat; experiment: Test D preemergence test; format: in vivo, Avena fatua; settings: scale 0 to 100
Method in brief: as §2

[11] = tested on: windgrass; experiment: Test D preemergence test; format: in vivo, Apera spica-venti; settings: scale 0 to 100
Method in brief: as §2

[12] = tested on: barnyardgrass; experiment: Test G preemergence test; format: in vivo, Echinochloa crus-galli; settings: scale 0 to 100
[13] = tested on: broadleaf signalgrass; experiment: Test G preemergence test; format: in vivo, Brachiaria platyphylla; settings: scale 0 to 100
[14] = tested on: corn; experiment: Test G preemergence test; format: in vivo, Zea mays; settings: scale 0 to 100
[15] = tested on: eastern black nightshade; experiment: Test G preemergence test; format: in vivo, Solanum ptycanthum; settings: scale 0 to 100
[16] = tested on: fall panicum; experiment: Test G preemergence test; format: in vivo, Panicum dichotomiflorum; settings: scale 0 to 100
[17] = tested on: giant foxtail; experiment: Test G preemergence test; format: in vivo, Setaria faberii; settings: scale 0 to 100
[18] = tested on: goosegrass; experiment: Test G preemergence test; format: in vivo, Eleusine indica; settings: scale 0 to 100
[19] = tested on: lambsquarters; experiment: Test G preemergence test; format: in vivo, Chenopodium album; settings: scale 0 to 100
[20] = tested on: large crabgrass; experiment: Test G preemergence test; format: in vivo, Digitaria sanguinalis; settings: scale 0 to 100
[21] = tested on: sorghum; experiment: Test G preemergence test; format: in vivo, Sorghum vulgare; settings: scale 0 to 100
[22] = tested on: soybean; experiment: Test G preemergence test; format: in vivo, Glycine max; settings: scale 0 to 100
[23] = tested on: tall waterhemp; experiment: Test G preemergence test; format: in vivo, Amaranthus tuberculatos; settings: scale 0 to 100
[24] = tested on: yellow foxtail; experiment: Test G preemergence test; format: in vivo, Pennisetum glaucum; settings: scale 0 to 100
[25] = tested on: woolly cupgrass; experiment: Test G preemergence test; format: in vivo, Eriochloa villosa; settings: scale 0 to 100

Cn1nc(C(F)(F)F)c(CS(=O)(=O)c2ccc(Cl)c[n+]2[O-])c1OC(F)F [Compound 7]
100: Plant response rating, Windgrass ([11]; 62 g ai/ha) | Plant response rating, Windgrass ([11]; 125 g ai/ha) | Plant response rating, Windgrass ([11]; 250 g ai/ha) | Plant response rating, Barnyardgrass ([12]; 250 g ai/ha) | Plant response rating, Signalgrass ([13]; 250 g ai/ha) | Plant response rating, Fall Panicum ([16]; 250 g ai/ha) | Plant response rating, Goosegrass ([18]; 125 g ai/ha) | Plant response rating, Goosegrass ([18]; 250 g ai/ha) | Plant response rating, Waterhemp ([23]; 125 g ai/ha) | Plant response rating, Waterhemp ([23]; 250 g ai/ha) | Plant response rating, Foxtail, Yellow ([24]; 250 g ai/ha)
75: Plant response rating, Cupgrass, Woolly ([25]; 125 g ai/ha)
65: Plant response rating, Windgrass ([11]; 31 g ai/ha)
60: Plant response rating, Barnyardgrass ([12]; 125 g ai/ha) | Plant response rating, Waterhemp ([23]; 62 g ai/ha) | Plant response rating, Cupgrass, Woolly ([25]; 62 g ai/ha)
15: Plant response rating, Barnyardgrass ([12]; 62 g ai/ha) | Plant response rating, Signalgrass ([13]; 31 g ai/ha) | Plant response rating, Lambsquarters ([19]; 250 g ai/ha) | Plant response rating, Waterhemp ([23]; 31 g ai/ha)
95: Plant response rating, Foxtail, Yellow ([24]; 125 g ai/ha)
20: Plant response rating, Bromegrass, Downy ([4]; 62 g ai/ha) | Plant response rating, Foxtail, Green ([6]; 62 g ai/ha) | Plant response rating, Foxtail, Green ([6]; 125 g ai/ha) | Plant response rating, Ryegrass, Italian ([7]; 250 g ai/ha) | Plant response rating, Foxtail, Giant ([17]; 62 g ai/ha) | Plant response rating, Crabgrass, Large ([20]; 125 g ai/ha) | Plant response rating, Sorghum ([21]; 250 g ai/ha)
80: Plant response rating, Barnyardgrass [1] | Plant response rating, Fall Panicum ([16]; 62 g ai/ha) | Plant response rating, Cupgrass, Woolly ([25]; 250 g ai/ha)
25: Plant response rating, Bromegrass, Downy ([4]; 125 g ai/ha) | Plant response rating, Foxtail, Giant ([17]; 125 g ai/ha)
35: Plant response rating, Bromegrass, Downy ([4]; 250 g ai/ha) | Plant response rating, Signalgrass ([13]; 62 g ai/ha)
90: Plant response rating, Ducksalad [2] | Plant response rating, Umbrella Sedge [3] | Plant response rating, Signalgrass ([13]; 125 g ai/ha) | Plant response rating, Fall Panicum ([16]; 125 g ai/ha) | Plant response rating, Goosegrass ([18]; 62 g ai/ha) | Plant response rating, Crabgrass, Large ([20]; 250 g ai/ha)
55: Plant response rating, Foxtail, Green ([6]; 250 g ai/ha) | Plant response rating, Foxtail, Giant ([17]; 250 g ai/ha)
50: Plant response rating, Goosegrass ([18]; 31 g ai/ha) | Plant response rating, Foxtail, Yellow ([24]; 62 g ai/ha)
0: Plant response rating, Bromegrass, Downy ([4]; 31 g ai/ha) | Plant response rating, Field Violet ([5]; 31 g ai/ha) | Plant response rating, Field Violet ([5]; 62 g ai/ha) | Plant response rating, Field Violet ([5]; 125 g ai/ha) | Plant response rating, Foxtail, Green ([6]; 31 g ai/ha) | Plant response rating, Ryegrass, Italian ([7]; 31 g ai/ha) | Plant response rating, Ryegrass, Italian ([7]; 62 g ai/ha) | Plant response rating, Ryegrass, Italian ([7]; 125 g ai/ha) | Plant response rating, Wheat, Spring ([8]; 31 g ai/ha) | Plant response rating, Wheat, Spring ([8]; 62 g ai/ha) | Plant response rating, Wheat, Spring ([8]; 125 g ai/ha) | Plant response rating, Wheat, Spring ([8]; 250 g ai/ha) | Plant response rating, Wheat, Winter ([9]; 31 g ai/ha) | Plant response rating, Wheat, Winter ([9]; 62 g ai/ha) | Plant response rating, Wheat, Winter ([9]; 125 g ai/ha) | Plant response rating, Wheat, Winter ([9]; 250 g ai/ha) | Plant response rating, Oat, Wild ([10]; 31 g ai/ha) | Plant response rating, Oat, Wild ([10]; 62 g ai/ha) | Plant response rating, Oat, Wild ([10]; 125 g ai/ha) | Plant response rating, Oat, Wild ([10]; 250 g ai/ha) | Plant response rating, Barnyardgrass ([12]; 31 g ai/ha) | Plant response rating, Corn ([14]; 31 g ai/ha) | Plant response rating, Corn ([14]; 62 g ai/ha) | Plant response rating, Corn ([14]; 125 g ai/ha) | Plant response rating, Corn ([14]; 250 g ai/ha) | Plant response rating, Nightshade ([15]; 31 g ai/ha) | Plant response rating, Nightshade ([15]; 62 g ai/ha) | Plant response rating, Nightshade ([15]; 125 g ai/ha) | Plant response rating, Nightshade ([15]; 250 g ai/ha) | Plant response rating, Fall Panicum ([16]; 31 g ai/ha) | Plant response rating, Foxtail, Giant ([17]; 31 g ai/ha) | Plant response rating, Lambsquarters ([19]; 31 g ai/ha) | Plant response rating, Lambsquarters ([19]; 62 g ai/ha) | Plant response rating, Lambsquarters ([19]; 125 g ai/ha) | Plant response rating, Crabgrass, Large ([20]; 31 g ai/ha) | Plant response rating, Crabgrass, Large ([20]; 62 g ai/ha) | Plant response rating, Sorghum ([21]; 31 g ai/ha) | Plant response rating, Sorghum ([21]; 62 g ai/ha) | Plant response rating, Sorghum ([21]; 125 g ai/ha) | Plant response rating, Soybean ([22]; 31 g ai/ha) | Plant response rating, Soybean ([22]; 62 g ai/ha) | Plant response rating, Soybean ([22]; 125 g ai/ha) | Plant response rating, Soybean ([22]; 250 g ai/ha) | Plant response rating, Foxtail, Yellow ([24]; 31 g ai/ha) | Plant response rating, Cupgrass, Woolly ([25]; 31 g ai/ha)
30: Plant response rating, Field Violet ([5]; 250 g ai/ha)
